In the NIST ThermoML archive (doi:10.1016/j.tca.2016.03.003):
± gives the expanded uncertainty stated by the source.

Assays:
[1] = DSC
[2] = Molar enthalpy of transition or fusion; conditions: DSC

Row | Triple point temperature ([1]; Crystal 1) | Triple point temperature ([1]; Crystal 2) | Molar enthalpy of transition or fusion ([2]; Crystal 1) | Molar enthalpy of transition or fusion ([2]; Crystal 2) | Triple point temperature ([1]; Crystal 3) | Triple point temperature ([1]; Crystal 4) | Structure (SMILES) | Triple point temperature ([1]; Metastable crystal)
1 | 329.2 ± 1.2 K | 237.5 ± 1.2 K | 0.937 ± 0.115 kcal/mol | 0.992 ± 0.115 kcal/mol | – | – | CC(C)(C)CO [2,2-dimethyl-1-propanol] | –
2 | 244.4 ± 1.2 K | 219.5 ± 1.2 K | – | – | 217.7 ± 1.2 K | 184.8 ± 1.2 K | CC(C)(C)Cl [2-chloro-2-methylpropane] | –

Row | Structure (SMILES) | Triple point temperature ([1]; Crystal 1) | Triple point temperature ([1]; Crystal 2) | Molar enthalpy of transition or fusion ([2]; Crystal 1) | Molar enthalpy of transition or fusion ([2]; Crystal 2) | Triple point temperature ([1]; Crystal 3) | Triple point temperature ([1]; Crystal 4) | Triple point temperature ([1]; Metastable crystal)
3 | ClC(Cl)(Cl)Cl [tetrachloromethane] | 250.4 ± 1.2 K | 226.1 ± 1.2 K | – | – | – | – | 245.2 ± 1.2 K
